Patent publication US9682928B2 (NeuroPro Therapeutics, Inc., priority 2009, dated 2017)
Like-named read-outs stand apart in the source and are kept apart here.

Legend:
Sprague-Dawley rats = test: Kainic acid induced seizures in rats; format: in vivo, rat; design: key to Seizures Severity Mean ± SD (grade 0 to IV): seizure grade 0 = no response to IV = status epilepticus; settings: 20 μmoles/kg IP; for Seizures Severity Mean ± SD (grade 0 to IV) / Seizures Mean ± SD (1 = yes, 0 = no): KA 15 mg/kg i.p.; for Seizures Mean ± SD (1 = yes, 0 = no): 2 hours; for change in vivo at 20 µmol/kg: Rattus norvegicus, 2 h, vs DMSO control
Protocol: Formulation of kainic acid was performed by NTS as a stock solution by reconstituting kainic acid with (100%) saline that was stored at 4° C. Vehicle control received saline solution. […] The research investigators were blinded to the treatment groups.
Solutions were prepared fresh daily just prior to use; dosing of all 10 rats with any given compound occurred on a single day after preparing the dosing solution. […] Unused remaining dosing solutions were stored frozen.
Animals were maintained in a temperature- and light-controlled environment in accord with the principles and procedures of the National Institutes of Health Guidelines for Care and Use of Laboratory Animals. Seizures were induced in adult, male Sprague-Dawley rats (260-300 g) by injection of KA (15 mg/kg, i.p.). In addition, animals were injected with test compounds following kainic acid to determine the effects on protection from epilepsy. Animals were monitored behaviorally for seizures for 2 hours after injection.
Seizure activity was initially characterized as either yes (1) or no (0) within a 2 hour period following injection of KA. A seizure severity grade was assigned based on the maximal response achieved on a scale from 0 to IV as follows: 0, no response; I, single limb clonus and scratching; II, multiple limb clonus and staggering gait; […], limb clonus, tonic extension of limbs and falling; IV, continuous grade III seizures for longer than 30 min (status epilepticus).
The results were expressed as the mean±standard deviation (SD). The significance of difference in the epileptic data was analyzed using a one-way analysis of variance (ANOVA) followed by Fisher's post hoc test. Repeated-measures ANOVA were computed on the monitoring data and the significance of the difference among groups were evaluated by Fisher's post hoc test.
All groups were subjected to kainic acid.
The induction of seizures in rats with kainic acid was determined as either yes seizures (1) or no seizures (0).

Na+K+Cl− co-transporter = biological target: T1, Na+K+Cl− co-transporter (Rattus norvegicus, UniProt E9PTX9); test: Na+K+Cl− cotransporter assay, 86Rb uptake in A7r5 cells; format: cell-based; settings: 10 minutes at 37° C.; for % Inhibition of Control Values / % of Control Value: 10 μM
T1 construct: endogenous in cells; host or cells: A7r5 cells
T1 sequence (E9PTX9 1-1203): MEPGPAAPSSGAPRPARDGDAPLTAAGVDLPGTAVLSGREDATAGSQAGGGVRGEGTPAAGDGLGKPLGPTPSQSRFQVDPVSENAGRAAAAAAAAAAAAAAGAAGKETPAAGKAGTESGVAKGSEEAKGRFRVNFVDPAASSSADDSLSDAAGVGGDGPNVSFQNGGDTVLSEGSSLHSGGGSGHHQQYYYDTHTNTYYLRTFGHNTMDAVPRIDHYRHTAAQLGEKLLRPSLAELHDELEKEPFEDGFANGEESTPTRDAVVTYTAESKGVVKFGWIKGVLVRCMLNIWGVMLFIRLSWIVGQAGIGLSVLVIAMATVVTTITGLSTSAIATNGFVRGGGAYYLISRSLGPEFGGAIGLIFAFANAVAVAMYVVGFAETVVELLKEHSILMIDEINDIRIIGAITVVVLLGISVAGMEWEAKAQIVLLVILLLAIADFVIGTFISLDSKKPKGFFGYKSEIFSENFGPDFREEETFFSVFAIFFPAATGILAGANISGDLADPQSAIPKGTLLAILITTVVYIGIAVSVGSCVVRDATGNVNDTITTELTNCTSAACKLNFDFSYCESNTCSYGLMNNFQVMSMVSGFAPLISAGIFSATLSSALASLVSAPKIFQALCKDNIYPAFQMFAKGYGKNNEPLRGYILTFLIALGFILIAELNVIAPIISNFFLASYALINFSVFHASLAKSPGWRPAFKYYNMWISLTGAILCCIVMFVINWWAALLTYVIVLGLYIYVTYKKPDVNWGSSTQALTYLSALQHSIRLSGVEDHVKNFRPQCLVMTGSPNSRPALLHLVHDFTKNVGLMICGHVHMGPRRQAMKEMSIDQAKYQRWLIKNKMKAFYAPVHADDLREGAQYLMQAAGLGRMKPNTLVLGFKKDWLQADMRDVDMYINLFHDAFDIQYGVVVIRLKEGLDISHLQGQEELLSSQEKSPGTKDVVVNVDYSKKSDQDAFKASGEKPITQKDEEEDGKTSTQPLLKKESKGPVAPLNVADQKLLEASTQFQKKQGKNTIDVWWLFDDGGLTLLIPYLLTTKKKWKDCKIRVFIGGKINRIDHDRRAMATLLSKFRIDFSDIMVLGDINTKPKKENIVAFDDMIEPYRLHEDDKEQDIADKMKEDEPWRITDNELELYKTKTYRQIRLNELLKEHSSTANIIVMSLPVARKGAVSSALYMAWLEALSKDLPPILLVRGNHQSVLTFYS
Protocol: Na^+K^+Cl^− co-transporter activity was measured in vitro in A7r5 cells by measuring their uptake of ^86Rb (0.2 μCi) in 10 minutes at 37° C. as detected by scintillation counting. See Chassande, et al. (1988) “The Na^+/K^+/Cl^− Cotransport in C6 glioma cells. Properties and role in volume regulation.” Eur. J. Biochem. 171: 425433.

[1] = read-out: Percent reduction in Seizures
[2] = read-out: Percent reduction in Seizures Severity

OC[C@@H](O)[C@@H](O)[C@H](O)[C@H](O)CO [Mannitol, reference compound]
Seizures Severity Mean ± SD (grade 0 to IV) (Sprague-Dawley rats): 0.5000 ± 0.7071 | Seizures Mean ± SD (1 = yes, 0 = no) (Sprague-Dawley rats): 0.4000 ± 0.5164 | change in vivo at 20 µmol/kg (Sprague-Dawley rats; [1]): -55.5% | change in vivo at 20 µmol/kg (Sprague-Dawley rats; [2]): -79.2%

CCCCNc1cc(C(=O)N(C)C)cc(S(N)(=O)=O)c1Oc1ccccc1 [NTP-2015, N,N-Dimethyl 3-Aminosulfonyl-5-N-butylamino-4-phenoxybenzamide]
Seizures Severity Mean ± SD (grade 0 to IV) (Sprague-Dawley rats): 1.100 ± 1.197 | Seizures Mean ± SD (1 = yes, 0 = no) (Sprague-Dawley rats): 0.5000 ± 0.5270 | change in vivo at 20 µmol/kg (Sprague-Dawley rats; [1]): -44.4% | change in vivo at 20 µmol/kg (Sprague-Dawley rats; [2]): -54.2%

CCCCNc1cc(C(=O)NC)cc(S(N)(=O)=O)c1Oc1ccccc1 [NTP-2016, N-Methyl 3-Aminosulfonyl-5-N-butylamino-4-phenoxybenzamide]
% Inhibition of Control Values (Na+K+Cl− co-transporter): −7% | % of Control Value (Na+K+Cl− co-transporter): 107.2%

CCCCNc1cc(C(=O)NCc2ccccc2)cc(S(N)(=O)=O)c1Oc1ccccc1 [NTP-2018, N-Benzyl 3-Aminosulfonyl-5-N-butylamino-4-phenoxybenzamide]
% Inhibition of Control Values (Na+K+Cl− co-transporter): 13% | % of Control Value (Na+K+Cl− co-transporter): 87.3%

CCCCNc1cc(C(=O)N[C@H](C)c2ccccc2)cc(S(N)(=O)=O)c1Oc1ccccc1 [NTP-2020, (R)-α-Methylbenzyl 3-Aminosulfonyl-5-N-butylamino-4-phenoxybenzamide]
% Inhibition of Control Values (Na+K+Cl− co-transporter): 7% | % of Control Value (Na+K+Cl− co-transporter): 93.5%

CCCCNc1cc(C(=O)N[C@@H](C)c2ccccc2)cc(S(N)(=O)=O)c1Oc1ccccc1 [NTP-2021, (S)-α-Methylbenzyl 3-Aminosulfonyl-5-N-butylamino-4-phenoxybenzamide]
% Inhibition of Control Values (Na+K+Cl− co-transporter): 27% | % of Control Value (Na+K+Cl− co-transporter): 72.6%

CCCCNc1cc(C(=O)NN2CCCCC2)cc(S(N)(=O)=O)c1Oc1ccccc1 [NTP-2023, N-Piperidinyl 3-Aminosulfonyl-5-N-butylamino-4-phenoxybenzamide]
% Inhibition of Control Values (Na+K+Cl− co-transporter): 23% | % of Control Value (Na+K+Cl− co-transporter): 77.3%

CCCCNc1cc(C(=O)NCCCN(C)C)cc(S(N)(=O)=O)c1Oc1ccccc1 [NTP-2025]
inhibition at 10 µM (Na+K+Cl− co-transporter; read-out: % Inhibition of Control Values): -27% | remaining activity at 10 µM (Na+K+Cl− co-transporter; read-out: % of Control Value): 127%

CCCCCCCCCCOC(=O)c1cc(NCCCC)c(Oc2ccccc2)c(S(N)(=O)=O)c1 [NTP-2028, n-Decyl Aminosulfonyl-5-N-butylamino-4-phenoxybenzoate]
% Inhibition of Control Values (Na+K+Cl− co-transporter): 16% | % of Control Value (Na+K+Cl− co-transporter): 84.4%

CCCCNc1cc(C(=O)OCC=C(C)C)cc(S(N)(=O)=O)c1Oc1ccccc1 [NTP-2029, 3-Methylbut-2-enyl Aminosulfonyl-5-N-butylamino-4-phenoxybenzoate]
% Inhibition of Control Values (Na+K+Cl− co-transporter): 12% | % of Control Value (Na+K+Cl− co-transporter): 88.4%

CCCCNc1cc(C(=O)OCc2ccc(OC)cc2)cc(S(N)(=O)=O)c1Oc1ccccc1 [NTP-2031, 4-Methoxybenzyl Aminosulfonyl-5-N-butylamino-4-phenoxybenzoate]
% Inhibition of Control Values (Na+K+Cl− co-transporter): 7% | % of Control Value (Na+K+Cl− co-transporter): 92.6%

CCCCNc1cc(C(=O)OCCCCc2ccccc2)cc(S(N)(=O)=O)c1Oc1ccccc1 [NTP-2034, 4-phenylbutyl 3-Aminosulfonyl-5-N-butylamino-4-phenoxybenzoate]
% Inhibition of Control Values (Na+K+Cl− co-transporter): 21% | % of Control Value (Na+K+Cl− co-transporter): 78.9%

CCCCNc1cc(C(=O)O[C@H](C)c2ccccc2)cc(S(N)(=O)=O)c1Oc1ccccc1 [NTP-2035, (R)-α-Methylbenzyl 3-Aminosulfonyl-5-N-butylamino-4-phenoxybenzoate]
% Inhibition of Control Values (Na+K+Cl− co-transporter): 26% | % of Control Value (Na+K+Cl− co-transporter): 74.5%

CCCCNc1cc(C(=O)O[C@@H](C)c2ccccc2)cc(S(N)(=O)=O)c1Oc1ccccc1 [NTP-2036, (S)-α-Methylbenzyl 3-Aminosulfonyl-5-N-butylamino-4-phenoxybenzoate]
% Inhibition of Control Values (Na+K+Cl− co-transporter): 20% | % of Control Value (Na+K+Cl− co-transporter): 80.1%
